Here are results for 18 compounds from article PMC11202169, “A Novel Fluorescence-Based Microplate Assay for High-Throughput Screening of hSULT1As Inhibitors” (Biosensors, 2024).

Values joined by “and” are separate entries in the source; they are usually repeats but may differ in a detail not shown here. Equal values may be shown once.

Holding throughout (assay type): biochemical
One experiment has as its target T1, hSULT1A3 (Homo sapiens, UniProt P0DMM9).
T1 construct: 6-histidine tag (N); TEV site (N); made in house; host or cells: Escherichia coli BL21 (DE3), pET29a(+)
Briefly: Fluorescence-based microplate inhibition assay, hSULT1A3-catalyzed HN-241 4-O-sulfation. The following applies: for Residue activity (%) hSULT1A3 / activity at 10 µM: test compound 10 μM, HN-241 10 μM, 15 min; for activity at 10 µM: read-out: Residue activity (%) hSULT1A3.

The next experiment addresses T2, hSULT1A2 (Homo sapiens, UniProt P50226).
T2 construct: 6-histidine tag (N); TEV site (N); made in house; host or cells: Escherichia coli BL21 (DE3), pET29a(+)
Briefly: Fluorescence-based microplate inhibition assay, hSULT1A2-catalyzed HN-241 4-O-sulfation. The following applies: for Residue activity (%) hSULT1A2 / remaining activity at 10 µM: test compound 10 μM, HN-241 5 μM, 15 min; for remaining activity at 10 µM: 0.25 h, read-out: Residue activity (%) hSULT1A2.

For a further experiment, the target named is T3, hSULT1A1 (Homo sapiens, UniProt P50225).
T3 construct: 6-histidine tag (N); TEV site (N); made in house; host or cells: Escherichia coli BL21 (DE3), pET29a(+)
T3 sequence (P50225 whole entry): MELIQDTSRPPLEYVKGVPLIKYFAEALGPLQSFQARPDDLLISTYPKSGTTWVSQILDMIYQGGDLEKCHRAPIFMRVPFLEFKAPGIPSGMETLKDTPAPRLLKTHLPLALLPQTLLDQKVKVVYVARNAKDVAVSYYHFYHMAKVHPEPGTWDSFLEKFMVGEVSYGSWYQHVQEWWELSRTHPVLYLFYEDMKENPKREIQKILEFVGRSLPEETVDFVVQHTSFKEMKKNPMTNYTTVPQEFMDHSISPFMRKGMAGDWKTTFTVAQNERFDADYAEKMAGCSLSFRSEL
Briefly: Fluorescence-based microplate inhibition assay, hSULT1A1-catalyzed HN-241 4-O-sulfation.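 As to all read-outs here: reaction started with 200 µM PAPS at 37 °C, fluorescence read continuously (Ex 350 nm, Em 450 nm), activity expressed relative to DMSO-only control without inhibitor.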 The following applies: for Residue activity (%) hSULT1A1 / activity at 1 µM: test compound 1 μM, HN-241 1 μM, 15 min; for activity at 1 µM: read-out: Residue activity (%) hSULT1A1.

[1] abbreviates: hSULT1A2-catalyzed HN-241 4-O-sulfation.

T2 sequence (P50226 whole entry): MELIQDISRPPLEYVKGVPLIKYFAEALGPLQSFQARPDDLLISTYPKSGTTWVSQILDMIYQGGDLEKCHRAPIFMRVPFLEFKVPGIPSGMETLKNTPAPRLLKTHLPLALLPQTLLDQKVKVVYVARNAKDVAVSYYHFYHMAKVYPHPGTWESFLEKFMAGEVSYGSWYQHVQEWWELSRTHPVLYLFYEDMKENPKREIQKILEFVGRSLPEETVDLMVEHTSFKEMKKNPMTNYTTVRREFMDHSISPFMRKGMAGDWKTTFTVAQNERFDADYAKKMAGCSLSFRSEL
T1 sequence (P0DMM9 whole entry): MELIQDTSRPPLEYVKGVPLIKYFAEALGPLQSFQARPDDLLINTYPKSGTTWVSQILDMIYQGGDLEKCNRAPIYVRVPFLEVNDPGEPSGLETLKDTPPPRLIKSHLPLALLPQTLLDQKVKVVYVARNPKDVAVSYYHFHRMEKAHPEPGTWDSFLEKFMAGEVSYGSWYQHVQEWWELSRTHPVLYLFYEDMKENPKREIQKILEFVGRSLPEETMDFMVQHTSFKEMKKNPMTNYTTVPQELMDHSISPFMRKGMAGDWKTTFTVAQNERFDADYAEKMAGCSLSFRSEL

Take `CC(C)=CCc1c(-c2ccc(O)cc2O)oc2c(CC=C(C)C)c(O)cc(O)c2c1=O` [Mulberrin]: at hSULT1A3, the “Residue activity (%) hSULT1A3” value turned out to be 70.86%. For the same compound, at hSULT1A2, the “Residue activity (%) hSULT1A2” value worked out at 143.65%. Also, the “Residue activity (%) hSULT1A1” value at hSULT1A1 came out at 53.37%.
Regarding `O=c1cc(-c2ccccc2)oc2ccc(O)c(O)c12` [5,6-Dihydroxy-2-phenylchromen-4-one], the “Residue activity (%) hSULT1A3” value on hSULT1A3 amounted to 68.42%. Moreover, the “Residue activity (%) hSULT1A2” value at hSULT1A2 was 8.07%. The “Residue activity (%) hSULT1A1” value at hSULT1A1 was determined as 18.14%.
In the case of `CC(C)=CCC[C@@](C)(O)[C@H]1CC[C@]2(C)[C@@H]1[C@H](O)C[C@@H]1[C@@]3(C)CC[C@H](O)C(C)(C)[C@@H]3CC[C@]12C` [(20R)-Protopanaxdiol], the “Residue activity (%) hSULT1A3” value at hSULT1A3 is 110.20% and 105.48%. The “Residue activity (%) hSULT1A2” value at hSULT1A2 is 97.81% and 101.25%. Moreover, the “Residue activity (%) hSULT1A1” value on hSULT1A1 was 99.25% and 99.62%.
Take `COc1ccc(-c2cc(=O)c3c(O)cc(O)cc3o2)cc1O` [Diosmetin]: at hSULT1A3, the activity at 10 µM came out at 39.1%. Further, the remaining activity at 10 µM on hSULT1A2 turned out to be 57%. Moreover, the activity at 1 µM on hSULT1A1 was 0%.
On the same counts, the results for `O=C(O)c1cc(O)c2c(c1)C(=O)c1cccc(O)c1C2=O` [Rhein] are 96.9%, 0.83% and 59.4%.
For the compound `C[C@]12CC[C@H](O)C[C@@]1(O)CC[C@@H]1[C@@H]2CC[C@]2(C)[C@@H](c3ccc(=O)oc3)CC[C@]12O` [3β,5,14-Trihydroxy-5β-bufa-20,22-dienolide], on hSULT1A3, the “Residue activity (%) hSULT1A3” value worked out at 114.49%. The “Residue activity (%) hSULT1A2” value at hSULT1A2 was 109.91%. The “Residue activity (%) hSULT1A1” value on hSULT1A1 is reported as 121.35%.
Take `COC1=C[C@@H]2[C@@H]3Cc4ccc(OC)c(O)c4[C@]2(CCN3C)CC1=O` [Sinomenine]: on hSULT1A3, the activity at 10 µM worked out at 110%. Also, on hSULT1A2, the remaining activity at 10 µM stood at 103%. The activity at 1 µM on hSULT1A1 was 103%.
For the compound `COc1ccc(-c2cc(=O)c3c(O)cc(O)cc3o2)cc1` [Acacetin], at hSULT1A3, the activity at 10 µM was 58.1%. Besides, the remaining activity at 10 µM on hSULT1A2 was determined as 0.47%. Also, the activity at 1 µM at hSULT1A1 was 0.38%.
On the same counts, the results for `COc1cc(O)cc2c1C(=O)C[C@@H](c1ccccc1)O2` [Alpinetin] are 115%, 49.5% and 69.8%.
Regarding `COc1ccc(-c2cc(=O)c3c(O)cc(O)cc3o2)cc1-c1c(O)cc(O)c2c(=O)cc(-c3ccc(O)cc3)oc12` [Bilobetin], on hSULT1A3, the activity at 10 µM stood at 42.3%. At hSULT1A2, the remaining activity at 10 µM was 0%. This compound also came in with an IC50 at hSULT1A2 (setting [1]) of 55.5 ± 1.3 nM. Further, the Inhibition manner entry on hSULT1A2 (inhibition kinetic assay, hSULT1A2-catalyzed HN-241 4-O-sulfation) is listed as “mixed inhibition”. Further, on hSULT1A1, the activity at 1 µM was found to be 24%.
Regarding `O=C1C[C@@H](c2ccc(O[C@@H]3O[C@H](CO)[C@@H](O)[C@H](O)[C@H]3O)cc2)Oc2cc(O)ccc21` [Liquiritin], the activity at 10 µM at hSULT1A3 came to 100%. Moreover, the remaining activity at 10 µM at hSULT1A2 is 95.1%. Besides, the activity at 1 µM at hSULT1A1 came out at 100%.
Take Ginkgolic acid: on hSULT1A3, the “Residue activity (%) hSULT1A3” value stood at 66.66%. Further, the “Residue activity (%) hSULT1A2” value on hSULT1A2 is recorded as 13.44%. Moreover, the “Residue activity (%) hSULT1A1” value on hSULT1A1 is 12.05%.
For `COc1cc(-c2oc3cc(O)cc(O)c3c(=O)c2O)ccc1O` [Isorhamnetin], the activity at 10 µM on hSULT1A3 came to 58.3%. Also, at hSULT1A2, the remaining activity at 10 µM was 0.39%. Also, the activity at 1 µM at hSULT1A1 stood at 1.36%.
Turning to `COc1ccc(-c2cc(=O)c3c(O)c(OC)c(O)cc3o2)cc1` [Pectolinarigenin], the figures for the half-maximal inhibitory concentration (IC50) against hSULT1A3 (hSULT1A3-catalyzed HN-241 4-O-sulfation), on hSULT1A2 (setting [1]) and on hSULT1A1 (hSULT1A1-catalyzed HN-241 4-O-sulfation) were 4360 ± 252 nM, 87.2 ± 3.16 nM and 9.52 ± 0.39 nM, respectively. The activity at 10 µM on hSULT1A3 was 1.34%. Moreover, the remaining activity at 10 µM at hSULT1A2 amounted to 0%. At hSULT1A1, the activity at 1 µM was 1.12%.
Turning to `CC1(C)CC[C@]2(C(=O)O)CC[C@]3(C)C(=CC[C@@H]4[C@@]5(C)CC[C@H](O)C(C)(C)[C@@H]5CC[C@]43C)[C@@H]2C1` [Oleanolic acid], the activity at 10 µM on hSULT1A3 was determined as 114%. Besides, at hSULT1A2, the remaining activity at 10 µM is 101%. In addition, the activity at 1 µM at hSULT1A1 came out at 127%.
In the case of `COc1c(O)cc2c(c1O)C(=O)c1c(cc(C)c(O)c1OC)C2=O` [Aurantio-obtusin], on hSULT1A3, the activity at 10 µM came to 45.2%. Also, the remaining activity at 10 µM on hSULT1A2 was 0%. This compound had an IC50 on hSULT1A2 (setting [1]) of 492 ± 15.2 nM. The activity at 1 µM at hSULT1A1 stood at 0.45%.
Regarding `COc1c2occc2cc2ccc(=O)oc12` [8-Methoxypsoralen], the activity at 10 µM at hSULT1A3 was found to be 119%. Besides, the remaining activity at 10 µM at hSULT1A2 was 110%. The activity at 1 µM at hSULT1A1 turned out to be 107%.
`O=C(/C=C/C=C/c1ccccc1)CCc1ccccc1` [Alnustone]: the “Residue activity (%) hSULT1A3” value at hSULT1A3 is 111.42%. Also, the “Residue activity (%) hSULT1A2” value on hSULT1A2 is listed as 80.60%. In addition, on hSULT1A1, the “Residue activity (%) hSULT1A1” value is on record as 74.39%.
